For 22 molecules, IC50 and activity results are on record in US9505765B2, “4-alkoxy/aralkoxy-5-substituted-pyrrolopyrimidine compounds as TAK1 inhibitors in disease treatment” (Confluence Life Sciences Inc., priority 2012, dated 2016).

Test [1] addresses TAK1-TAB1 (Homo sapiens (Human), UniProt O43318). The experiment in a line: TAK1-TAB1 competitive binding assay (LanthaScreen), without pre-incubation. The note with it: 10 nM TAK1-TAB1, 100 nM kinase tracer-236, read-out: TAK1-TAB1 Inhibition IC50. An excerpt:
TAK1-TAB1 Binding Inhibitory Potency: The ability of candidate compounds to interact with TAK1-TAB1 is quantitated by a competitive binding assay using the LanthaScreen technology developed by Life Technologies. This assay is based on the binding of a proprietary, Alexa Fluor® 647-labeled, ATP-competitive kinase inhibitor (kinase tracer-236) to the TAK1-TAB1 construct in presence of a europium-conjugated antibody, resulting in a FRET (fluorescence resonance energy transfer) signal. Displacement of the kinase tracer by compound results in a lower emission ratio upon excitation of the europium chelate. Candidate compounds are designed as potential irreversible inhibitors of TAK1-TAB1, capable of ligating to an active site cysteine residue. The time dependent nature of irreversible inhibition is investigated by performing the binding assay with and without a pre-incubation of compound and TAK1-TAB1.
The inhibitory potency of candidate compounds is measured in 20 mM HEPES pH 7.5, 10 mM MgCl2, 0.01% BSA, 0.0005% Tween-20, and 2% DMSO in the presence of 10 nM TAK1-TAB1, 2 nM Eu-anti-his antibody, and 100 nM kinase tracer-236 using a 384-well plate format. Background signal is defined in the absence of TAK1-TAB1 and uninhibited signal is defined in the presence of vehicle (2% DMSO) alone. Compounds were evaluated in an 11 point dose-response ranging from 20 μM to 0.34 nM. The binding assays are performed under two conditions to evaluate time dependence of inhibition. For the pre-incubation assay, TAK1-TAB1 and Eu-anti-his antibody are preincubated with compound or vehicle for two hours prior to the addition of kinase tracer. The non-preincubated assay is run in which TAK1-TAB1 and Eu-anti-his antibody are added to a mixture of compound and kinase tracer. IC50 values of compounds are determined using a 4 parameter logistical fit of emission ratio as a function of the concentration of compound.
Compounds were tested in accordance with the above described assay, without pre-incubation, yielding the values described below: […]
For orientation: TR-FRET usually uses a lanthanide donor and a delayed reading to cut background.

Test [2] deals with A549 cells. The experiment in a line: IL-1β stimulated IL-6 Production in A549 cells. It counts as cell-based. The note with it: Homo sapiens, 1 ng/ml rhIL1β, 18 hrs; for IC50: read-out: IL-6 Production IC; for activity at 5 µM: 5 μM compound, read-out: IL-6 Production % Control 5 μM; for activity at 50 µM: 50 μM compound, read-out: IL-6 Production % Control 50 μM. The procedure: IL-1β stimulated IL-6 Production in A549 cells: The cellular efficacy of compound candidates is determined using the human lung epithelial cell line A549 (ATCC #CCL-185), based upon the methods of Wheeler et al. (2004) J. Nutrition 134, 1039-1044, and Eda et al. (2011) Cell Biol. Int. 35, 355-358. A549 cells produce a number of cytokines (IL6, IL8 and TNFα) in response to stimulation with IL1β. To induce the production of inflammatory mediators, A549 cells are plated at a final concentration of 3×10^5 cells/well of a 96 well flat bottom plate in F12-K medium supplemented with 10% fetal bovine serum, 100 units/ml penicillin and 100 μg/ml streptomycin (Gibco BRL Life Technologies). Cells are treated with or without inhibitors for 3 hrs then stimulated with 1 ng/ml rhIL1β (R & D Systems) for an additional 18 hrs at 37° C. with 5% CO2. The supernatants are removed and stored at −20° C. until they are to be assayed. The levels of inflammatory mediators are determined using commercial MSD cytokine kits (Meso Scale Discovery) as per the manufacturer's instructions. Standard curves are based on 7 steps of 4× serial dilutions, with a wide dynamic range of 10000 pg/ml to 2.4 pg/ml, and the blank in triplicate. Lower limit of detection (LLOD) is calculated at the commonly used 3× the standard deviation of the blank.
Compounds were tested in accordance with the above described assay, yielding the values described below: […]

TAK1-TAB1, sequence (O43318 other isoform, or with tags, fused parts or gaps): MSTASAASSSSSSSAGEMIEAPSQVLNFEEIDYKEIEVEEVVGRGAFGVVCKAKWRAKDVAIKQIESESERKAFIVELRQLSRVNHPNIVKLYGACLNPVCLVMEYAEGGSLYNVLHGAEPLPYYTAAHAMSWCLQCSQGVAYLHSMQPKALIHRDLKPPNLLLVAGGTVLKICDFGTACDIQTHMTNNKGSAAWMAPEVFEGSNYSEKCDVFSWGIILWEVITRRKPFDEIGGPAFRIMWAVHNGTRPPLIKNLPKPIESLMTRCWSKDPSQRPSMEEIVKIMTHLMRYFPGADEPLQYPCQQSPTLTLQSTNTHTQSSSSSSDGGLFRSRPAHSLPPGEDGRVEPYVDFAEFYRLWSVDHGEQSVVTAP

Turning to `CC(C)COc1ncnc2[nH]cc(C(=O)CCl)c12` [Example 23, 2-chloro-1-(4-isobutoxy-7H-pyrrolo[2,3-d]pyrimidin-5-yl)ethanone], the IC50 in test [1] is 280 nM. Further, in test [2], the IC50 was 12000 nM, the activity at 5 µM worked out at 117% and the activity at 50 µM was found to be 0%.

Turning to `CC(C)(O)COc1ncnc2[nH]cc(/C=C/C(N)=O)c12` [Example 193, (E)-3-(4-(2-hydroxy-2-methylpropoxy)-7H-pyrrolo[2,3-d]pyrimidin-5-yl)acrylamide], the IC50 in test [1] was determined as 75 nM. Moreover, in test [2], the IC50 came to 1200 nM, the activity at 5 µM worked out at 22% and the activity at 50 µM came to 0%.

Regarding `CC(C)COc1ncnc2[nH]cc(/C=C/C(=O)NCC3CC3)c12` [Example 180, (E)-N-(cyclopropylmethyl)-3-(4-isobutoxy-7H-pyrrolo[2,3-d]pyrimidin-5-yl)acrylamide], in test [1], the IC50 stood at 380 nM. Further, in test [2], the IC50 was found to be 630 nM, the activity at 5 µM was 2% and the activity at 50 µM was determined as 0%.

As for `NC(=O)/C=C/c1c[nH]c2ncnc(OCc3ccccc3)c12` [Example 96, (E)-3-(4-benzyloxy-7H-pyrrolo[2,3-d]pyrimidin-5-yl)-acrylamide], the IC50 in test [1] stood at 730 nM. Moreover, in test [2], the activity at 5 µM amounted to 78% and the activity at 50 µM stood at 0%.

Consider `CC(C)COc1ncnc2[nH]cc(C/C=C/C(N)=O)c12` [Example 198, 4-(4-isobutoxy-7H-pyrrolo[2,3-d]pyrimidin-5-yl)-but-2-enoic acid amide], for which the IC50 in test [1] stood at 420 nM. Also, in test [2], the IC50 was 8400 nM, the activity at 5 µM came out at 4% and the activity at 50 µM stood at 0%.

`CCCOc1ncnc2[nH]cc(/C=C/C(N)=O)c12` [Example 189, (E)-3-(4-propoxy-7H-pyrrolo[2,3-d]pyrimidin-5-yl)acrylamide]: in test [1], the IC50 came out at 19 nM. In test [2], the IC50 came to 180 nM, the activity at 5 µM was 0% and the activity at 50 µM was found to be 0%.

As to `COC(=O)/C=C/c1c[nH]c2ncnc(OCc3ccccc3)c12` [Example 201, (E)-3-(4-benzyloxy-7H-pyrrolo[2,3-d]pyrimidin-5-yl)-acrylic acid methylester], the IC50 in test [1] amounted to 350 nM. In addition, in test [2], the IC50 came out at 800 nM, the activity at 5 µM is 26% and the activity at 50 µM was 1%.

As for `CC(C)(C)COc1ncnc2[nH]cc(/C=C/C(N)=O)c12` [Example 192, (E)-3-(4-(neopentyloxy)-7H-pyrrolo[2,3-d]pyrimidin-5-yl)acrylamide], the IC50 in test [1] is 5.2 nM. In addition, in test [2], the IC50 turned out to be 78 nM, the activity at 5 µM was found to be 0% and the activity at 50 µM came to 0%.

As to `CC(C)COc1ncnc2[nH]cc(/C=C/C(=O)NC[C@H](C)O)c12` [Example 182, (S,E)-N-(2-hydroxypropyl)-3-(4-isobutoxy-7H-pyrrolo[2,3-d]pyrimidin-5-yl)acrylamide], in test [1], the IC50 was found to be 1600 nM. Moreover, in test [2], the IC50 was 3400 nM, the activity at 5 µM turned out to be 36% and the activity at 50 µM came to 1%.

In the case of `NC(=O)/C=C/c1c[nH]c2ncnc(Oc3ccccc3)c12` [Example 190, (E)-3-(4-phenoxy-7H-pyrrolo[2,3-d]pyrimidin-5-yl)acrylamide], in test [1], the IC50 was determined as 170 nM. In addition, in test [2], the IC50 was 1000 nM, the activity at 5 µM is 15% and the activity at 50 µM turned out to be 0%.

On to `CC(C)COc1ncnc2[nH]cc(C=C(F)C(N)=O)c12` (stereo in doubt) [Example 200, (E) 2-fluoro-3-(4-isobutoxy-7H-pyrrolo[2,3-d]pyrimidin-5-yl)-acrylamide], for which the IC50 in test [1] was determined as 860 nM. In addition, in test [2], the activity at 5 µM worked out at 61% and the activity at 50 µM came out at 14%.

Take `CC(C)COc1ncnc2[nH]cc(/C=C/C(=O)N(C)C)c12` [Example 184, (E)-3-(4-isobutoxy-7H-pyrrolo[2,3-d]pyrimidin-5-yl)-N,N-dimethylacrylamide]: in test [1], the IC50 turned out to be 97 nM. In addition, in test [2], the IC50 was 190 nM, the activity at 5 µM is 1% and the activity at 50 µM is 0%.

With `CC(C)COc1ncnc2[nH]cc(/C=C(\Cl)C(N)=O)c12` [Example 196, (Z)-2-chloro-3-(4-isobutoxy-7H-pyrrolo[2,3-d]pyrimidin-5-yl)acrylamide], in test [1], the IC50 is 360 nM. Moreover, in test [2], the IC50 is 750 nM, the activity at 5 µM worked out at 0% and the activity at 50 µM was 0%.

`CCC(C)Oc1ncnc2[nH]cc(/C=C/C(N)=O)c12` (stereo not drawn) [Example 187, (E)-3-(4-(sec-butoxy)-7H-pyrrolo[2,3-d]pyrimidin-5-yl)acrylamide]: the IC50 in test [1] amounted to 4.3 nM. Further, in test [2], the IC50 is 190 nM, the activity at 5 µM came to 0% and the activity at 50 µM was 0%.

Consider `CC(C)COc1ncnc2[nH]cc(/C=C/C(N)=O)c12` [Example 38, (E)-3-(4-isobutoxy-7H-pyrrolo[2,3-d]pyrimidin-5-yl)acrylamide], for which the IC50 in test [1] amounted to 3.1 nM. For the same molecule, in test [2], the IC50 was 85 nM, the activity at 5 µM came to 0% and the activity at 50 µM came to 0%.

Turning to `CC(C)COc1ncnc2[nH]cc(/C=C/C(=O)O)c12` [Example 178, (E)-3-(4-isobutoxy-7H-pyrrolo[2,3-d]pyrimidin-5-yl)acrylic acid], in test [1], the IC50 is 340 nM. Also, in test [2], the activity at 5 µM came out at 68% and the activity at 50 µM was 1%.

Turning to `CC(C)COc1ncnc2[nH]cc(C#N)c12` [Example 1, 4-isobutoxy-7H-pyrrolo[2,3-d]pyrimidine-5-carbonitrile], in test [1], the IC50 amounted to 560 nM. Moreover, in test [2], the activity at 5 µM came to 83% and the activity at 50 µM came to 6%.

`CC(C)(C)Oc1ncnc2[nH]cc(/C=C/C(N)=O)c12` [Example 195, (E)-3-(4-(tert-butoxy)-7H-pyrrolo[2,3-d]pyrimidin-5-yl)acrylamide]: in test [1], the IC50 came out at 13 nM. Further, in test [2], the IC50 stood at 920 nM, the activity at 5 µM is 19% and the activity at 50 µM worked out at 1%.

Regarding `NC(=O)/C=C/c1c[nH]c2ncnc(OC3CCC(F)(F)CC3)c12` [Example 199, 3-[4-(4,4-difluoro-cyclohexyloxy)-7H-pyrrolo[2,3-c]pyrimidin-5-yl]-acrylamide], in test [1], the IC50 is 16 nM. Further, in test [2], the IC50 turned out to be 180 nM, the activity at 5 µM is 0% and the activity at 50 µM was 0%.

In the case of `NC(=O)/C=C/c1c[nH]c2ncnc(OCC(F)(F)F)c12` [Example 191, (E)-3-(4-(2,2,2-trifluoroethoxy)-7H-pyrrolo[2,3-d]pyrimidin-5-yl)acrylamide], in test [1], the IC50 worked out at 33 nM. Besides, in test [2], the IC50 was 150 nM, the activity at 5 µM was 0% and the activity at 50 µM was determined as 0%.

Regarding `CC(C)Oc1ncnc2[nH]cc(/C=C/C(N)=O)c12` [Example 188, (E)-3-(4-isopropoxy-7H-pyrrolo[2,3-d]pyrimidin-5-yl)acrylamide], in test [1], the IC50 was found to be 4.4 nM. Further, in test [2], the IC50 was determined as 170 nM, the activity at 5 µM turned out to be 0% and the activity at 50 µM was found to be 0%.

Turning to `CCNC(=O)/C=C/c1c[nH]c2ncnc(OCC(C)C)c12` [Example 179, (E)-N-ethyl-3-(4-isobutoxy-7H-pyrrolo[2,3-d]pyrimidin-5-yl)acrylamide], the IC50 in test [1] worked out at 340 nM. In test [2], the IC50 came out at 87 nM, the activity at 5 µM was determined as 0% and the activity at 50 µM was found to be 0%.
